Molecular target: T1, yeast topoisomerase II (yTOPOII) (Saccharomyces cerevisiae, UniProt P06786)
T1 construct: gene TOP2; purified enzyme, commercial (Inspiralis Limited, UK)
T1 sequence (P06786 1-1428): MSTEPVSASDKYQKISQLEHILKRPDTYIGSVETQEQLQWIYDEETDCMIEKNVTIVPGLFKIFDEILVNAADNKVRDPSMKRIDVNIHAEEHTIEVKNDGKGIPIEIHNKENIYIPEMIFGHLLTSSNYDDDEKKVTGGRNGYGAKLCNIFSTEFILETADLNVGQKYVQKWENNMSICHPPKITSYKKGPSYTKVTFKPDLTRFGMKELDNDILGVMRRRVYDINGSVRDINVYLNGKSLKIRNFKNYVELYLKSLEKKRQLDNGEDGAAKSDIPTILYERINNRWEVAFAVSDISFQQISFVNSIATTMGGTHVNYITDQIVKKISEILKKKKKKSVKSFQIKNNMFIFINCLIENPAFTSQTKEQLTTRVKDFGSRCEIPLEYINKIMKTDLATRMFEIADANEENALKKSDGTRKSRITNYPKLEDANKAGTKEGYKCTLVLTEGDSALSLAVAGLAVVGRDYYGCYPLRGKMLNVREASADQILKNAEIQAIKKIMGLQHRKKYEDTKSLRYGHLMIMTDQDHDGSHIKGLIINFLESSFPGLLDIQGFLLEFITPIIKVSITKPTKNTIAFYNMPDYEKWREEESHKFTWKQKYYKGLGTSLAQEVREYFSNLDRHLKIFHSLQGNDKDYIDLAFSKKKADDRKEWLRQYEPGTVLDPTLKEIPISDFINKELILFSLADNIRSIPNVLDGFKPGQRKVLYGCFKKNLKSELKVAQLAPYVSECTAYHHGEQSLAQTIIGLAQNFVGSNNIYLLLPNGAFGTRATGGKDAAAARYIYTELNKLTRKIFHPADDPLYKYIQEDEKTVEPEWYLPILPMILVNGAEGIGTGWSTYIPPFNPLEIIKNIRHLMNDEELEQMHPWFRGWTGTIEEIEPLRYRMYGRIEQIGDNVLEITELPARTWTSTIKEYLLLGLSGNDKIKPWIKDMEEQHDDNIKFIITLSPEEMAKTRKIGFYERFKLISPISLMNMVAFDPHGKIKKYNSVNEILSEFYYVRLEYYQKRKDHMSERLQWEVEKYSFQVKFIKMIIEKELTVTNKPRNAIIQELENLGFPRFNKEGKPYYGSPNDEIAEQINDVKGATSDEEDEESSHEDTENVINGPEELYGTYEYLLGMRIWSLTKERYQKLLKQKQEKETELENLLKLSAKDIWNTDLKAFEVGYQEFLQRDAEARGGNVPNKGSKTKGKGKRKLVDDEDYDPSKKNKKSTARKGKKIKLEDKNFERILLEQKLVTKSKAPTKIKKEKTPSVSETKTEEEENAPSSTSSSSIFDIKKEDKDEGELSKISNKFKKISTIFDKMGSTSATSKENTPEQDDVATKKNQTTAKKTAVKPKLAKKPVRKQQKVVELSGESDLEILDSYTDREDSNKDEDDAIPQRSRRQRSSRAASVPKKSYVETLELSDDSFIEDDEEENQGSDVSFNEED
Experiment: gel-based relaxation of supercoiled plasmid DNA, densitometry
Assay type: biochemical
Excerpt: gel-based relaxation of supercoiled plasmid DNA, densitometry on yeast topoisomerase II (yTOPOII)

SMILES | IC50
Cc1ccc2c(c1)c(=O)c1c(NCCNC(=O)[C@@H](N)CCCCN)ccc3ncn2c31 [IKE11, N-{2-[(8-methyl-6-oxo-6H-imidazo[4,5,1-de]acridin-5-yl)amino]ethyl}lysinamide] | 14.9 ± 1.1 µM
NCCNc1ccc2ncn3c4ccc(O)cc4c(=O)c1c23 [IKE12, 5-[(2-aminoethyl)amino]-8-hydroxy-6H-imidazo[4,5,1-de]acridin-6-one] | 10.9 ± 1.1 µM
Cc1ccc2c(c1)c(=O)c1c(NCCN)ccc3ncn2c31 [IKE10, 5-[(2-aminoethyl)amino]-8-methyl-6H-imidazo[4,5,1-de]acridin-6-one] | 15.5 ± 1.3 µM
CCN(CC)CCNc1ccc2ncn3c4ccc(O)cc4c(=O)c1c23 [C-1311] | 16.6 ± 1.3 µM
Cc1ccc2c(c1)c(=O)c1c(NCCCN)ccc3nnn2c31 [IKE6, 5-[-(3′-Aminopropyl)amino]-8-methyl-6H-[1–3]-triazolo[4,5,l-de]acridin-6-one] | 10.9 ± 1.1 µM
COc1ccc2c(c1)c(=O)c1c(NCCCNC(=O)[C@@H](N)CCCCN)ccc3nnn2c31 [IKE7, N′-{3-[(8-methoxy-6-oxo-6H-[1,2,3]triazolo[4,5,1-de]acridin-5-yl)amino]propyl} lysinamide] | 13.4 ± 1.1 µM
COc1ccc2c(c1)c(=O)c1c(NCCN)ccc3ncn2c31 [IKE13, 5-[(2-aminoethyl)amino]-8-methoxy-6H-imidazo[4,5,1-de]acridin-6-one] | 6.2 ± 1.2 µM
Cc1ccc2c(c1)c(=O)c1c(NCCCNC(=O)[C@@H](N)CCCCN)ccc3nnn2c31 [IKE8, N′-{3-[(8-methyl-6-oxo-6H-[1,2,3]triazolo[4,5,1-de]acridin-5-yl)amino]propyl} lysinamide] | 15.2 ± 1.2 µM
COc1ccc2c(c1)c(=O)c1c(NCCNC(=O)[C@@H](N)CCCCN)ccc3ncn2c31 [IKE14, N-{2-[(8-methoxy-6-oxo-6H-imidazo[4,5,1-de]acridin-5-yl)amino]ethyl}lysinamide] | 14.7 ± 1.1 µM

Next, values leading:

IC50 | SMILES
13.3 ± 1.2 µM | CCN(CC)CCCNc1ccc2nnn3c4ccc(OC)cc4c(=O)c1c23 [IKE4, 5-[-(3′-Diethylamino)propylamino]-8-methoxy-6H-[1–3]-triazolo[4,5,l-de]acridin-6-one]
13.3 ± 1.1 µM | CCN(CC)CCCNc1ccc2nnn3c4ccc(C)cc4c(=O)c1c23 [IKE2, 5-[-(3′-Diethylamino)propylamino]-8-methyl-6H-[1–3]-triazolo[4,5,l-de]acridin-6-one]
7.7 ± 1.1 µM | COc1ccc2c(c1)c(=O)c1c(NCCCN)ccc3nnn2c31 [IKE5, 5-[-(3′-Aminopropyl)amino]-8-methoxy-6H-[1–3]-triazolo[4,5,l-de]acridin-6-one]
13.2 ± 1.1 µM | COc1ccc2c(c1)c(=O)c1c(NCCCN(C)C)ccc3nnn2c31 [IKE3, 5-[-(3′-Dimethylamino)propylamino]-8-methoxy-6H-[1–3]-triazolo[4,5,l-de]acridin-6-one]
13.7 ± 1.1 µM | CCN(CC)CCNc1ccc2ncn3c4ccc(OC)cc4c(=O)c1c23 [C-1330]
18.2 ± 1.4 µM | CN(C)CCCNc1ccc2nnn3c4ccc(O)cc4c(=O)c1c23 [C-1305]
13.4 ± 1.1 µM | Cc1ccc2c(c1)c(=O)c1c(NCCCN(C)C)ccc3nnn2c31 [IKE1, 5-[-(3′-Dimethylamino)propylamino]-8-methyl-6H-[1–3]-triazolo[4,5,l-de]acridin-6-one]

Reference: PMC10864382, “Targeting yeast topoisomerase II by imidazo and triazoloacridinone derivatives resulting in their antifungal activity” (Scientific Reports, 2024)
